The nature of data set [1]: Biodistribution in ICR mice after intravenous injection, gamma counter (Experimental Example 3). In kind it is in vivo. Conditions: ICR male mice, i.v., 1 μCi/100 μL per mouse.
Data set [2] can be described thus: Stability in normal mouse serum at 37 °C, radio-TLC (Experimental Example 2). In kind it is in vitro ADME.

The structures appear in SMILES notation.

On to `[N-]=[N+]=NCCOCCOCCOCCNC(=O)c1ccc([125I])cc1` [실시예 1, 125I이 표지된 N-(2-(2-(2-(2-아지도에톡시)에톡시)에톡시)에틸)-4-아이오도벤즈아마이드], for which, in data set [1], the “time to absorption and accumulation in liver and kidney” value is recorded as at most 15 min. Moreover, the tissue uptake at 1 h in data set [1] (liver and kidney, iv, 1 uCi/animal, within 1 h, read-out: concentration (liver and kidney)) is at most 20 %ID/g. Also, the tissue uptake at 2 h in data set [1] (liver and kidney, iv, 1 uCi/animal, within 2 h, read-out: concentration (liver and kidney)) was at most 10 %ID/g. Also, in data set [1] (within 15 min), the “accumulation in liver and kidney” value is “높은 농도로 집적”. Further, the “excretion from the body” value in data set [1] (within 2 h) is listed as at least 90%. The “decrease of radiochemical purity in mouse serum” value in data set [2] (after 5 h) is listed as “거의 감소하지 않고”. Also, in data set [2] (after 5 h, read-out: radiochemical purity in mouse serum), the remaining at 5 h was at least 95%. Besides, the remaining at 24 h in data set [2] (after 24 h, read-out: radiochemical purity in mouse serum) is at least 90%.

(Values after patent publication KR20170031305A, “방사성 요오드 표지 아자이드 추적체, 이의 제조방법 및 이를 유효성분으로 포함하는 방사성 요오드 표지 또는 의료 진단용 조성물” (한국원자력연구원, priority 2015, dated 2017).)
